What was measured:
human cyclin E-CDK2 = human cyclin E-CDK2 (Homo sapiens, UniProt P24941); test: FlashPlate kinase assay, cyclin E-CDK2; assay type: biochemical; details: Rb protein substrate, 1 μM ATP
Procedure: (§1) To determine inhibition of Cdk4, Cdk2 and Cdk1 activity, kinase assays were conducted using FlashPlate™ assays (NEN™-Life Science Products). FlashPlate assays were performed using recombinant human cyclin B-CDK1, human cyclin E-CDK2 or human cyclin D1-CDK4 complexes. GST-cyclinE (GST-cycE), CDK2, GST-cyclinB (GST-cycB), CDK1, GST-CDK4 and cyclin D1 (cycD1) cDNA clones in baculovirus vectors were provided by Dr. W. Harper at the Baylor College of Medicine, Houston, Tex.
(§2) The expression of the 62Kd protein was under the control of an IPTG inducible promoter in an M15 E. coli strain. Cells were lysed by sonication and purification was carried out by binding lysates at pH 8.0 to a Ni-chelated agarose column pretreated with 1 mM imidazole. The resin was then washed several times with incrementally decreasing pH buffers to pH 6.0, and eluted with 500 mM imidazole. Eluted protein was dialysed against 20 mM HEPES pH 7.5, 30% glycerol, 200 mM NaCl, and 1 mM DTT. Purified Rb fusion protein stocks were quantitated for protein concentration, aliquoted, and stored at −70° C.
(§3) For all three kinase assays reported herein, 96-well FlashPlates were coated with Rb protein at 10 μg/ml, using 100 μl per well. Plates were incubated at 4° C. overnight or at room temperature for 3 hours on a shaker. To control for nonspecific phosphorylation, one row of wells was coated with 100 μl/well coating buffer (20 mM HEPES, 0.2 M NaCl). Plates were then washed twice with wash buffer (0.01% Tween 20 in phosphate-buffered saline). Compounds to be tested (“test compounds”) were added to the wells at 5×final concentration. Reactions were initiated by immediate addition of 40 μl reaction mix (25 mM HEPES, 20 mM MgCl2, 0.002% Tween 20, 2 mM DTT, 1 μM ATP, 4 nM ^33P-ATP) and a sufficient amount of enzyme to give counts that were at least 10-fold above background. Plates were incubated at room temperature on a shaker for 30 minutes. Plates were washed four times with the wash buffer, sealed, and counted on the TopCount scintillation counter (Packard Instrument Co., Downers Grove, Ill.]. The percent inhibition of Rb phosphorylation, which is a measure of the inhibition of CDK activity, was determined according to the following formula: [formula]
(§4) where “test compound” refers to the average counts per minute of the test duplicates, “nonspecific” refers to the average counts per minute when no CyclinD/Cdk4, etc., was added, and “total” refers to the average counts per minute when no compound was added.

human cyclin D1-CDK4 = human cyclin D1-CDK4 (Homo sapiens, UniProt P11802); test: FlashPlate kinase assay, cyclin D1-CDK4; assay type: biochemical; details: Rb protein substrate, 1 μM ATP
Procedure: as §1, §2, §3, §4

HCT116 = test: Tetrazolium dye (MTT) proliferation assay; assay type: cell-based; details: Homo sapiens, HCT-116; HCT116 colorectal carcinoma cell line
Procedure: The cell line used was HCT116, a colorectal carcinoma cell line obtained from the American Type Cell Culture Collection (ATCC;
Rockville, Md.). The cells were grown in McCoy's 5A medium supplemented with 10% FCS and L-glutamine.
Cells were plated at the appropriate seeding density to give logarithmic growth over the course of the assay in a 96-well tissue culture plate. Plates were incubated overnight at 37° C. in a humidified incubator with 5% CO2. The next day, test compounds were serially diluted to four times the final concentration in the appropriate medium containing 1.2% DMSO. One-fourth final volume of each dilution was added in duplicate to the plates containing cells. The same volume of 1.2% DMSO in medium was added to a row of “control wells” such that the final concentration of DMSO in each well was 0.3%. Wells to which no cells were added served as the “blank.” Wells to which no inhibitor was added served as “no inhibitor control.” The plates were) returned to the incubator, and at set time points (determined by their growth curves) plates were analyzed as described below.
3-(4,5-dimethylthiazole-2-yl)-2,5-diphenyl-2H-tetrazolium bromide (thiazolyl blue; MTT; Sigma) was added to each well to yield a final concentration of 1 mg/ml. Plates were returned to the incubator for 2.5-3 hours at 37° C. The MTT-containing medium was removed and the resulting formazan metabolite was solubilized in 100% ethanol with shaking for 15 minutes at room temperature. Absorbance readings were taken in a microtiter plate reader (Dynatech and Molecular Devices plate readers were used interchangeably) at a wavelength of 570 nm with a 650 nm reference. Percent inhibition (% INH) is calculated by subtracting the absorbance of the blank well from all wells, then subtracting the ratio of the average absorbance of each test duplicate (SAVE) by the average of the controls (CAVE) from 1.00. The final number is then multiplied by 100 (% INH=(1.00−SAVE/CAVE)×100).

human cyclin B-CDK1 = human cyclin B-CDK1 (Homo sapiens, UniProt P06493); test: FlashPlate kinase assay, cyclin B-CDK1; assay type: biochemical; details: Rb protein substrate, 1 μM ATP
Procedure: as §1, §2, §3, §4

Sequence of human cyclin B-CDK1 (P06493 whole entry): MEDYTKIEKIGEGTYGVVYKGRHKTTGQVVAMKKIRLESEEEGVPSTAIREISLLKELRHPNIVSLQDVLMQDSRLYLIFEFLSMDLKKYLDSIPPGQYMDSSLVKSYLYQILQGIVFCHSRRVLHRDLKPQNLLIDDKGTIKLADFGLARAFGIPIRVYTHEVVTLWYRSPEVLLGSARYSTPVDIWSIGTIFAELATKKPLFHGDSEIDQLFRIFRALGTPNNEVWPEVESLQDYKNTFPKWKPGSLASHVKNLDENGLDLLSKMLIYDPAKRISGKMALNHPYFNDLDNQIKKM
Sequence of human cyclin B-CDK1 (P14635 whole entry partner): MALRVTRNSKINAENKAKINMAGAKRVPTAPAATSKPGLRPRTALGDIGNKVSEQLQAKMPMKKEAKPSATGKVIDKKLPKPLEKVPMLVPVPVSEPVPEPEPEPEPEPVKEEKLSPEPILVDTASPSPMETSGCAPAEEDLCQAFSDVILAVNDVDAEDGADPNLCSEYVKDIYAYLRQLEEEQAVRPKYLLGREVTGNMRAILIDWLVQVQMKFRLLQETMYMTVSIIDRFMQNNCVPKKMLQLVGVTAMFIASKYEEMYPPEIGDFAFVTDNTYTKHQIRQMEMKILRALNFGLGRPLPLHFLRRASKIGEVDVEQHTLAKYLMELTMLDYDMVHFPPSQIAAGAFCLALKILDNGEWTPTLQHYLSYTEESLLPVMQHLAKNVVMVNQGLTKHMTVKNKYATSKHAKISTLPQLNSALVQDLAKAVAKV
Sequence of human cyclin D1-CDK4 (P11802 whole entry): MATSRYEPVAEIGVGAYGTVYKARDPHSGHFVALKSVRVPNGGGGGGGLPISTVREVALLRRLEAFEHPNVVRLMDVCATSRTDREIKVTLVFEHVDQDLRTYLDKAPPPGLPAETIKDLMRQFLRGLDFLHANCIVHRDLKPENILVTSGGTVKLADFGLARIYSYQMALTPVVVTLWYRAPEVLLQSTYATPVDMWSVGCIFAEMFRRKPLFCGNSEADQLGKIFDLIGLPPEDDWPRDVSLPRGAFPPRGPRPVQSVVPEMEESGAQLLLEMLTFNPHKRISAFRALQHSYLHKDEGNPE
Sequence of human cyclin D1-CDK4 (P24385 whole entry partner): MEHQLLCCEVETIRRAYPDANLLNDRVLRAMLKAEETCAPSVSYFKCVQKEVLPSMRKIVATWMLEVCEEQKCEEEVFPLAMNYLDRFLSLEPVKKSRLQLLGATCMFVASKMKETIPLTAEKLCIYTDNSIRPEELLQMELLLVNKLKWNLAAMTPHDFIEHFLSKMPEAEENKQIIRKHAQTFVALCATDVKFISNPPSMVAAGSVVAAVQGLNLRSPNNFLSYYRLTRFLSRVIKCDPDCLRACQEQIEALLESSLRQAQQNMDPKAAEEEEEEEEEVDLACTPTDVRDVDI

IC50 (human cyclin E-CDK2)	IC50 (human cyclin D1-CDK4)	IC50 (HCT116)	IC50 (human cyclin B-CDK1)	SMILES
2900 nM	10 nM	1500 nM	1900 nM	CC(C)N1CCN(c2ccc(Nc3nc(N)c(C(=O)c4ccc5c(c4)OCO5)s3)cc2)CC1 [Example 42, [4-Amino-2-[[4-[4-(1-methylethyl)-1-piperazinyl]phenyl]amino]-5-thiazolyl](1,3-benzodioxol-5-yl)methanone]
4900 nM	25 nM	2900 nM	5600 nM	CC(=O)Nc1ccc(C(=O)c2sc(Nc3ccc(N4CCN(C(C)C)CC4)cc3)nc2N)cc1 [Example 45]
900 nM	43 nM	2800 nM	500 nM	CC(=O)N1CCN(c2ccc(Nc3nc(N)c(C(=O)c4ccc5c(c4)OCO5)s3)cc2)CC1 [Example 47, 1-Acetyl-4-[4-[[4-amino-5-[(1,3-benzodioxol-5-yl)carbonyl]-2-thiazolyl]amino]phenyl]piperazine]
7100 nM	10 nM	13300 nM	2300 nM	CCN(CC)c1ccc(C(=O)c2sc(Nc3ccc(N4CCN(C(C)=O)CC4)cc3)nc2N)cc1 [Example 48, 1-Acetyl-4-[4-[[4-amino-5-[4-(diethylamino)benzoyl]-2-thiazolyl]amino]phenyl]piperazine]
1500 nM	15 nM	5300 nM	2100 nM	Nc1nc(Nc2ccc(N3CCN(CCO)CC3)cc2)sc1C(=O)c1ccc2c(c1)OCCO2 [Example 49, [4-Amino-2-[[4-[4-(2-hydroxyethyl)-1-piperazinyl]phenyl]amino]-5-thiazolyl](2,3-dihydro-1,4-benzodioxin-6-yl)methanone]
500 nM	20 nM	900 nM	900 nM	Nc1nc(Nc2ccc(N3CCN(CCO)CC3)cc2)sc1C(=O)c1cccc(F)c1 [Example 51]
700 nM	28 nM	2300 nM	1200 nM	Nc1nc(Nc2ccc(N3CCN(CCO)CC3)cc2)sc1C(=O)c1cc(F)cc(F)c1 [Example 52, [4-Amino-2-[[4-[4-(2-hydroxyethyl)-1-piperazinyl]phenyl]amino]-5-thiazolyl](3,5-difluorophenyl)methanone]
1300 nM	6 nM	2500 nM	2300 nM	COc1cccc(C(=O)c2sc(Nc3ccc(N4CCN(CCO)CC4)cc3)nc2N)c1 [Example 53, [4-Amino-2-[[4-[4-(2-hydroxyethyl)-1-piperazinyl]phenyl]amino]-5-thiazolyl](3-methoxyphenyl)methanone]
1900 nM	9 nM	2100 nM	900 nM	CN1CCN(c2ccc(Nc3nc(N)c(C(=O)c4ccc(NCCO)c([N+](=O)[O-])c4)s3)cc2)CC1 [Example 57, [4-Amino-2-[[4-(4-methyl-1-piperazinyl)phenyl]amino]-5-thiazolyl][4-(2-hydroxyethyl)amino-3-nitrophenyl]methanone]
2400 nM	19 nM	3100 nM	3900 nM	CN1CCN(c2ccc(Nc3nc(N)c(C(=O)c4ccc(N5CCCC5)c([N+](=O)[O-])c4)s3)cc2)CC1 [Example 58, [4-Amino-2-[[4-(4-methyl-1-piperazinyl)phenyl]amino]-5-thiazolyl][3-nitro-4-(1-pyrrolidinyl)phenyl]methanone]
4400 nM	24 nM	3900 nM	4300 nM	CN1CCN(c2ccc(Nc3nc(N)c(C(=O)c4ccc(N5CCOCC5)c([N+](=O)[O-])c4)s3)cc2)CC1 [Example 59, [4-Amino-2-[[4-(4-methyl-1-piperazinyl)phenyl]amino]-5-thiazolyl][3-nitro-4-(4-morpholinyl)phenyl]methanone]
7900 nM	17 nM	4900 nM	5900 nM	COCCNc1ccc(C(=O)c2sc(Nc3ccc(N4CCN(C)CC4)cc3)nc2N)cc1[N+](=O)[O-] [Example 60, [4-Amino-2-[[4-(4-methyl-1-piperazinyl)phenyl]amino]-5-thiazolyl][3-nitro-4-[(2-methoxyethyl)amino]phenyl]methanone]

More lines, now with the values behind:

SMILES	IC50 (human cyclin E-CDK2)	IC50 (human cyclin D1-CDK4)	IC50 (HCT116)	IC50 (human cyclin B-CDK1)
CC(C)N1CCN(c2ccc(Nc3nc(N)c(C(=O)c4ccc5c(c4)OCCO5)s3)cc2)CC1 [Example 41, [4-Amino-2-[[4-[4-(1-methylethyl)-1-piperazinyl]phenyl]amino]-5-thiazolyl](2,3-dihydro-1,4-benzodioxin-6-yl)methanone]	3700 nM	15 nM	3000 nM	2900 nM
COc1cccc(C(=O)c2sc(Nc3ccc(N4CCN(C(C)C)CC4)cc3)nc2N)c1 [Example 43, [4-Amino-2-[[4-[4-(1-methylethyl)-1-piperazinyl]phenyl]amino]-5-thiazolyl](3-methoxyphenyl)methanone]	3400 nM	21 nM	1300 nM	1900 nM
COc1cc(OC)cc(C(=O)c2sc(Nc3ccc(N4CCN(C(C)C)CC4)cc3)nc2N)c1 [Example 44, [4-Amino-2-[[4-[4-(1-methylethyl)-1-piperazinyl]phenyl]amino]-5-thiazolyl](3,5-dimethoxyphenyl)methanone]	11900 nM	28 nM	3800 nM	1800 nM
CCN(CC)c1ccc(C(=O)c2sc(Nc3ccc(N4CCN(C(C)C)CC4)cc3)nc2N)cc1 [Example 46, [4-Amino-2-[[4-[4-(1-methylethyl)-1-piperazinyl]phenyl]amino]-5-thiazolyl][4-(diethylamino)phenyl]methanone]	5200 nM	14 nM	3600 nM	3600 nM
Nc1nc(Nc2ccc(N3CCN(CCO)CC3)cc2)sc1C(=O)c1ccc(N2CCCC2)cc1 [Example 50, [4-Amino-2-[[4-[4-(2-hydroxyethyl)-1-piperazinyl]phenyl]amino]-5-thiazolyl][4-(1-pyrrolidinyl)phenyl]methanone]	2500 nM	30 nM	9300 nM	5500 nM
Nc1nc(Nc2ccc(N3CCNCC3)cc2)sc1C(=O)c1cccc(F)c1 [Example 54, [4-Amino-2-[[4-(1-piperazinyl)phenyl]amino]-5-thiazolyl](3-fluorophenyl)methanone]	200 nM	13 nM	700 nM	300 nM
Nc1nc(Nc2ccc(N3CCNCC3)cc2)sc1C(=O)c1ccc(N2CCCC2)cc1 [Example 55, [4-Amino-2-[[4-(1-piperazinyl)phenyl]amino]-5-thiazolyl][4-(1-pyrrolidinyl)phenyl]methanone]	3200 nM	50 nM	3800 nM	4300 nM
COc1ccc(C(=O)c2sc(Nc3ccc(N4CCNCC4)cc3)nc2N)cc1F [Example 56, [4-Amino-2-[[4-(1-piperazinyl)phenyl]amino)-5-thiazolyl](3-fluoro-4-methoxyphenyl)methanone]	800 nM	14 nM	800 nM	1000 nM

From patent US6756374B2, “Diaminothiazoles having antiproliferative activity” (Hoffmann-La Roche Inc., priority 2001, dated 2004)
